Measurements published in publication PMC9886550, “Molecular mechanism of topoisomerase poisoning by the peptide antibiotic albicidin” (Nature Catalysis, 2023).

Test system: DNA gyrase
Experiment: DNA gyrase supercoiling inhibition assay (initial IC50 determination)
Assay type: biochemical, E. coli
Conditions: vs Albi-3
Procedure: For initial compound IC50 determination, DNA supercoiling experiments with DNA gyrase were performed in a total volume of 30 μl of gyrase buffer (Inspiralis). The reactions contained 500 ng relaxed pBR322 plasmid DNA, 1.5 U DNA gyrase (6 U μl^−1) and albicidin derivatives at a final concentration of between 2.5 and 320 nM. The final DMSO concentration used was 3%. Samples were incubated at 37 °C for 30 min and subsequently loaded on an agarose gel. Electrophoretic analysis was performed using a 1% agarose gel (100 V, 90 min). DNA bands were stained with ethidium bromide and subsequently quantified using ImageJ 1.53k software.
Extended Data Fig. 8 Inhibition of supercoiling by Albi-1/2/3. a. Chemical structures of Albi-1, Albi-2 and Albi-3. b. Example supercoiling inhibition assay gels: Albi-1, decreasing concentrations (320, 160, 80, 40, 20, 10, 5, 2.5 nM); Albi-2 (320, 160, 80, 40, 20 nM); Albi-3 (960, 800, 640, 480, 320, 160, 80, 40 nM). First lane - relaxed pBR322; second lane - DNA gyrase. 40 nM albicidin was used as positive control (third lane). Different concentrations were tested and representative gels are shown.

COc1c(NC(=O)c2ccc(NC(=O)c3ccc(NC(=O)[C@H](Cc4c[nH]nn4)NC(=O)c4ccc(NC(=O)c5ccc6cc(O)ccc6c5)cc4)cn3)c(OCCN)c2O)ccc(C(=O)O)c1O [Albi-2]
better activity in the gyrase inhibition assay than Albi-3: ~ 4 fold
